Results as given in US11142554B2 (MASSACHUSETTS INSTITUTE OF TECHNOLOGY, priority 2015, dated 2021).
Positions of bridges follow the written chain, without caps; N, C: chain ends. Non-standard residues stand in square brackets, D forms with d. Residues, ends and D or L forms follow the SMILES beside them. S5 = C=CCCC[C@](C)(N)C(=O)O; Nle = CCCC[C@H](N)C(=O)O

Tests used:
Mcl-1 = Mcl-1 (Homo sapiens, UniProt Q07820); experiment: Receptor binding IC50 of M1 and stapled M1 peptides (Table 2); conditions: among M1 and its stapled variants
Excerpt: Peptides 1-10 are SEQ ID NOs: 46, 47, 9, 48, 49, 50, 7, 51, 52, and 8 respectively.

MEF cells = experiment: Lactate dehydrogenase (LDH) release assay, non-specific cell lysis; type: cell-based
Excerpt: FIG. 5|Results of studies assessing non-specific cell-lysis by internally cross-linked peptides. Lactate dehydrogenase release assays (LDH) identified membrane-disruptive peptides 3 (SEQ ID NO:9) and 7 (SEQ ID NO:7); tested in MEF cells. Peptides 7, 10, 3, and 11-20 are SEQ ID NOs: 7, 8, 9, and 10-19 respectively.
Additional studies examined the non-specific cell lysis activity of peptide 3 (SEQ ID NO:9) (M1 SAHBd) and certain sequence variants of peptide 3 (SEQ ID NO:9) (M1 SAHBd).

[1] = Circular dichroism analysis of alpha-helicity; type: physicochemical; conditions: Tris buffer pH 7.4
Excerpt: FIG. 4|Results of studies assessing the alpha-helicity of various internally cross-linked peptides. Circular dichroism analysis illustrating helicity of stapled peptides 3 (SEQ ID NO:9), 7 (SEQ ID NO:7), and 10 (SEQ ID NO:8) and the non-stapled peptide of the amino acid sequence […] (SEQ ID NO:54), dissolved in Tris buffer pH.7.4.

[2] = target: T1, interaction between Bak and Mcl-1 (Homo sapiens, UniProt Q07820); experiment: Mcl-1 immunoprecipitation and Bak western analysis in OCI-AML3 cell lysate; type: biochemical
T1 construct: endogenous in cells; host or cells: OCI-AML3 cell lysate
Excerpt: The same blot was probed with the Bak (˜28 kD) antibody.

[3] = system: H929 multiple myeloma cells; experiment: Cell viability by CellTiter-Glo (CTG) assay; type: cell-based; conditions: 24 hours
Excerpt: (§1) Data are mean and s.d. for experiments performed in at least duplicate. Vehicle is DMSO.

MDA-MB231 cells = experiment: Cell viability by CellTiter-Glo (CTG) assay; type: cell-based, human; conditions: 24 hours
Excerpt: as §1

Sequence of Mcl-1 (Q07820 whole entry): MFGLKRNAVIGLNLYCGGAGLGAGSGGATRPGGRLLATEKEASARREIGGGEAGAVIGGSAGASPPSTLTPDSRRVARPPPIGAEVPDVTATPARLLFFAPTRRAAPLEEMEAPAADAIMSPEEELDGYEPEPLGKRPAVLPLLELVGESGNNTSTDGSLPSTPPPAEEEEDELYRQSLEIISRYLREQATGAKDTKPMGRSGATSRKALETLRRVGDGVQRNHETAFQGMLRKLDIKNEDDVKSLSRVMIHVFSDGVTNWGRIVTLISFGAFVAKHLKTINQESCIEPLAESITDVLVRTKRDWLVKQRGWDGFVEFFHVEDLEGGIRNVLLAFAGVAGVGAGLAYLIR
T1 sequence (Q07820 whole entry): as above

Compound	selectivity for Mcl-1 over Bcl-xL, Bcl-2, Bclw and Bfl 1 (in words) (Mcl-1)	LDH release, membrane disruption (in words) (MEF cells)	alpha-helical content (in words) [1]	disruption of Bak/Mcl-1 interaction (in words) [2]	effect on cell viability (in words) [3]	effect on cell viability (in words) (MDA-MB231 cells)
CCCC[C@H](NC(=O)[C@H](Cc1c[nH]c2ccccc12)NC(=O)[C@@H](NC(C)=O)[C@@H](C)CC)C(=O)N[C@@]1(C)CCCC=CCCC[C@@](C)(C(=O)N[C@@H](CCCNC(=N)N)C(=O)N[C@@H](CC(C)C)C(=O)NCC(=O)N[C@@H](CC(=O)O)C(=O)N[C@@H](CCC(=O)O)C(=O)N[C@H](C(=O)N[C@@H](CC(N)=O)C(=O)N[C@@H](C)C(=O)N[C@@H](Cc2ccc(O)cc2)C(=O)N[C@@H](Cc2ccc(O)cc2)C(=O)N[C@@H](C)C(=O)N[C@@H](CCCNC(=N)N)C(=O)N[C@@H](CCCNC(=N)N)C(N)=O)[C@@H](C)CC)NC(=O)[C@H](CC(C)C)NC(=O)CNC(=O)[C@H](CCC(N)=O)NC1=O [peptide 3, IWNleXQGLXRLGDEINAYYARR] (Ac-IW[Nle][S5]QGL[S5]RLGDEINAYYARR-NH2; staple 4-8; N-terminus assumed)	greatest selectivity for Mcl-1	membrane-disruptive	highest alpha-helical content	interaction between Bak and Mcl-1 was disrupted		
CN(C)CC[C@H](CSc1ccccc1)Nc1ccc(S(=O)(=O)NC(=O)c2ccc(N3CCN(Cc4ccccc4-c4ccc(Cl)cc4)CC3)cc2)cc1[N+](=O)[O-] [ABT-737]					not active	clear dose-dependent reduction in cell viability
